Consider eleven compounds from US9115137B2, “2,3,4,5-tetrahydro-1H-pyrido[4,3-B]indole compounds and methods of use thereof” (priority 2008, dated 2015).

The target in this test is T1, human recombinant adrenergic α2C receptor (Homo sapiens, UniProt P18825).
T1 construct: expressed in transfected cells; host or cells: insect Sf9 cells
T1 sequence (P18825 1-462): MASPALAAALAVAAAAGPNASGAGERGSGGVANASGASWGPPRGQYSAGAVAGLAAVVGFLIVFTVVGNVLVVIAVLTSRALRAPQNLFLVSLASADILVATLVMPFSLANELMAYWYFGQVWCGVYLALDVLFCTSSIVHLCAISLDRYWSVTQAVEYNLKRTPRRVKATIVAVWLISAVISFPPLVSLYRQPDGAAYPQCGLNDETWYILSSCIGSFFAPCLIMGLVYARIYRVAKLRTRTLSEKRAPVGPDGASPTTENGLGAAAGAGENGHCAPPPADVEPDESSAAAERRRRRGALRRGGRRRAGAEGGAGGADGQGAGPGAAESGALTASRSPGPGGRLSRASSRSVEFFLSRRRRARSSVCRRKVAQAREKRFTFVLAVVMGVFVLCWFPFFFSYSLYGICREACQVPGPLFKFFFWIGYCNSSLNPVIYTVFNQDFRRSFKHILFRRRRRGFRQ
Kind of test: Adrenergic α2C radioligand binding ([3H]MK-912). The following applies: compound at 1 μM; insect Sf9 cells; read-out: Adrenergic (1 μM) α2C, percent inhibition of specific binding. As for the experimental part:
To evaluate in radioligand binding assays the activity of compounds of the invention, human recombinant adrenergic α2C receptor expressed in insect Sf9 cells (Uhlen S et al. J Pharmacol Exp Ther. 271:1558, 1994) in a modified Tris-HCl buffer (50 mM Tris-HCl, pH 7.4, 12.5 mM MgCl2, 2 mM EDTA) was used. Compounds of the invention were incubated with 1 nM [^3H]MK-912 for 60 minutes at 25° C. Non-specific binding was estimated in the presence of 10 μM WB-4101. Receptor proteins were filtered and washed, the filters were then counted to determine [^3H]MK-912 specifically bound. Compounds were screened at 1 μM or lower, using 1% DMSO as vehicle. Compounds of the invention were tested in this biochemical assay and percent inhibition of specific binding was determined. Biochemical assay results are presented as the percent inhibition of specific binding in Table 6.
Take `CCOC(=O)CCn1c2c(c3cc(C)ccc31)CN(C)CC2` [CD1, ethyl 3-(1,2,3,4-tetrahydro-2,8-dimethylpyrido[4,3-b]indol-5-yl)propanoate]: the inhibition at 1 µM stood at 42%.

For the compound `Cc1ccc2c(c1)c1c(n2CC#N)CCN(C)C1` [CD61, 2-(1,2,3,4-tetrahydro-2,8-dimethylpyrido[4,3-b]indol-5-yl)acetonitrile], the inhibition at 1 µM is 39%.

With `C#CCn1c2c(c3cc(C)ccc31)CN(C)CC2` [CD73, 2,8-dimethyl-5-(prop-2-ynyl)-2,3,4,5-tetrahydro-1H-pyrido[4,3-b]indole], the inhibition at 1 µM was found to be 43%.

Take `CNC(=O)CCn1c2c(c3cc(C)ccc31)CN(C)CC2` [Compound 1, 3-(1,2,3,4-tetrahydro-2,8-dimethylpyrido[4,3-b]indol-5-yl)-N-methylpropanamide]: the inhibition at 1 µM amounted to 4%.

With `CCNC(=O)CCn1c2c(c3cc(C)ccc31)CN(C)CC2` [Compound 2, N-ethyl-3-(1,2,3,4-tetrahydro-2,8-dimethylpyrido[4,3-b]indol-5-yl)propanamide], the inhibition at 1 µM worked out at 2%.

On to `Cc1ccc2c(c1)c1c(n2CCC(=O)NC2CCCCC2)CCN(C)C1` [Compound 3, N-cyclohexyl-3-(1,2,3,4-tetrahydro-2,8-dimethylpyrido[4,3-b]indol-5-yl)propanamide], for which the inhibition at 1 µM amounted to 1%.

`Cc1ccc2c(c1)c1c(n2CCC(=O)NC2CCCC2)CCN(C)C1` [Compound 4, N-cyclopentyl-3-(1,2,3,4-tetrahydro-2,8-dimethylpyrido[4,3-b]indol-5-yl)propanamide]: the inhibition at 1 µM turned out to be 4%.

Turning to `CCOC(=O)CCCn1c2c(c3cc(C)ccc31)CN(C)CC2` [Compound 5, ethyl 4-(1,2,3,4-tetrahydro-2,8-dimethylpyrido[4,3-b]indol-5-yl)butanoate], the inhibition at 1 µM is 50%.

As to `CCNC(=O)CCCn1c2c(c3cc(C)ccc31)CN(C)CC2` [Compound 6, N-ethyl-4-(1,2,3,4-tetrahydro-2,8-dimethylpyrido[4,3-b]indol-5-yl)butanamide], the inhibition at 1 µM amounted to 48%.

Take `Cc1ccc2c(c1)c1c(n2CCNC(=O)OCC(Cl)(Cl)Cl)CCN(C)C1` [Compound 8, 2,2,2-trichloroethyl 2-(1,2,3,4-tetrahydro-2,8-dimethylpyrido[4,3-b]indol-5-yl)ethylcarbamate]: the inhibition at 1 µM was 22%.

As to `Cc1ccc2c(c1)c1c(n2CCNC(=O)C2CCCNC2)CCN(C)C1` (centres unmarked) [Compound 9, N-(2-(1,2,3,4-tetrahydro-2,8-dimethylpyrido[4,3-b]indol-5-yl)ethyl)piperidine-3-carboxamide], the inhibition at 1 µM was -8%.

By inhibition is commonly meant the relative decrease from the control value, in per cent.
